Values quoted from earlier work, collected in US20090227460A1, “STABILIZED OIL-IN-WATER EMULSIONS INCLUDING MEPTYL DINOCAP” (Dow AgroSciences LLC, priority 2008, published 2009).

Substance: 2,6-dinitro-4-octylphenyl crotonates and 2,4-dinitro-6-octylphenyl crotonates in which ‘octyl’ is a mixture of 1-methylheptyl, 1-ethylhexyl and 1-propylpentyl groups [Meptyl Dinocap]
- solubility in water: 0.151 µg/mL
